Test results reported in PubChem BioAssay AID1645861 (Buhrlage Lab, Dana-Farber Cancer Institute and Novartis …, 2021).
Active and inactive are the calls of the source.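 How the source made its calls: active means compounds whose peak USP7 inhibition across the dose series reached 30% or more; inactive means the rest.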

These compounds were tested against Ubiquitin carboxyl-terminal hydrolase 7 (Homo sapiens) (UniProt Q93009) (assay: Ubiquitin-specific protease 7 DUB inhibitors, concentration-effect, biochemical, validation of primary hits (AID 1645861)). Conditions: purified USP7, Ub-rhodamine cleavage fluorescence, 60 min.
Ubiquitin carboxyl-terminal hydrolase 7 (Homo sapiens), sequence (Q93009 whole entry, looked up): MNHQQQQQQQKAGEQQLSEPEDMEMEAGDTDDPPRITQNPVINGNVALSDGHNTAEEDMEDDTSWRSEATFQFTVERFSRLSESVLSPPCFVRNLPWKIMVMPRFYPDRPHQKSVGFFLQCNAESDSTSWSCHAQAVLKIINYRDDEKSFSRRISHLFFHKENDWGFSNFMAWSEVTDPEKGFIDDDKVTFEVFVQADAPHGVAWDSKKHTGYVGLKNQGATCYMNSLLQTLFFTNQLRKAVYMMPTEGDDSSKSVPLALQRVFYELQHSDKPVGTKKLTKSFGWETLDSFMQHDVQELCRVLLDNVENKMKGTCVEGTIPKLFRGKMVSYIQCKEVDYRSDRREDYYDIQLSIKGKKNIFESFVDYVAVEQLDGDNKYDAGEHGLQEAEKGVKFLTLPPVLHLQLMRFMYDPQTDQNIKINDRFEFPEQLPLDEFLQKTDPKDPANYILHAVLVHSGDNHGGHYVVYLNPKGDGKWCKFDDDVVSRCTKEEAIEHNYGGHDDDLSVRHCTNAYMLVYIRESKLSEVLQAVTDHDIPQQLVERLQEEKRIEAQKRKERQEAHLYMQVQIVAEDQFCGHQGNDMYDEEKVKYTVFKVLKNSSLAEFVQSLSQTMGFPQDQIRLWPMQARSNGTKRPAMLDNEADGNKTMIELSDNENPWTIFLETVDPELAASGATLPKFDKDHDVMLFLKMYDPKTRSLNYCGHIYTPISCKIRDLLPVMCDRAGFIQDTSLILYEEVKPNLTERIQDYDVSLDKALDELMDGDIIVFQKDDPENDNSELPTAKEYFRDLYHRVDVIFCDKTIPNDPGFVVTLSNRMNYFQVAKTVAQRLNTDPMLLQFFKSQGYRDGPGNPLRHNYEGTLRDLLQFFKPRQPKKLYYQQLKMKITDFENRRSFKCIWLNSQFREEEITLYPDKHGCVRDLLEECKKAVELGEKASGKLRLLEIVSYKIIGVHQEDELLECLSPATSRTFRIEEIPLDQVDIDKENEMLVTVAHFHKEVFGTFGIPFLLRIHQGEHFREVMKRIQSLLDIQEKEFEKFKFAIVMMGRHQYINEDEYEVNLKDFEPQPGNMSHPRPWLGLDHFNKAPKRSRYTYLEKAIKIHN

| IC50 | Structure (SMILES) |
| --- | --- |
| > 50 µM (inactive) | COc1ccccc1NC(=O)c1nc(-c2cn(-c3cccc(F)c3)nn2)no1 |
| 22.1 µM | COc1cc(-c2ccccc2)c(O)c(O)c1-c1ccccc1 |
| > 50 µM (inactive) | CCCCCC1OC(=O)c2c(C)cccc2Oc2ccc(O)c(C=O)c2/C=C/C1O (stereo not drawn) |
| > 50 µM (inactive) | COc1cc2c(cc1OC)-c1cc(Nc3ccc(Br)cc3)nc(=O)n1CC2 |
| > 50 µM (inactive) | CC1(C)Cc2c(c(-c3ccco3)nc3sc4c(SCCCc5ccccc5)ncnc4c23)CO1 |
| 5.09 µM | CCCCCCCCCc1cc(OC(=O)c2c(CCCCCCCCC)cc(O)cc2O[C@@H]2O[C@H](CO)[C@@H](O)[C@H](O)[C@H]2O)cc(O)c1C(=O)O |
| > 50 µM (inactive) | COc1cccc(NC(=O)Cn2cc(C(=O)c3ccc(C)cc3)c(=O)c3cc(Cl)ccc32)c1 |
| > 50 µM (inactive) | N#Cc1cn2c(nc1-c1ccc(Cl)cc1)nc1ccccc12 |
| > 50 µM (inactive) | CC(C)Cc1ccc(-c2cc(-c3ccc(C(F)(F)F)cc3)c(C#N)c(=O)[nH]2)cc1 |
| > 50 µM (inactive) | COc1ccc(C)cc1NC(=O)C1CC(=O)Nc2nc3ccccc3n21 (stereo not drawn) |
| > 50 µM (inactive) | O=c1[nH]c(C2CCN(S(=O)(=O)c3ccc(S(=O)(=O)NC4CCCC4)cc3)CC2)nc2c1nnn2Cc1cccc(Cl)c1 |
| > 50 µM (inactive) | Cc1nc(C(=O)NC2(O)C(=O)c3ccccc3C2=O)cs1 |
| > 50 µM (inactive) | Cc1cccc(-n2ccnc(SCC(=O)Nc3ccc(Cl)cc3F)c2=O)c1 |
| > 50 µM (inactive) | CCCC(O)CCCCCCCc1cc(O)cc(O)c1C(=O)OC(CCC)CCCCCCCc1cc(O)cc(O)c1 (stereo not drawn) |
| 32.9 µM | O=C1CC(O)C(C2=CC(=O)c3c(O)cccc3C2=O)O1 (stereo not drawn) |
| > 50 µM (inactive) | Cc1nn(-c2ccc(F)cc2)c(C)c1S(=O)(=O)N1CCN(c2ccccn2)CC1 |
| > 50 µM (inactive) | O=C(NCc1ccc2c(c1)OCO2)c1cn(-c2cccc(Cl)c2)nn1 |
| > 50 µM (inactive) | Cc1nc(N2CCN(c3ccc(Cl)cc3)CC2)c2oc3ccccc3c2n1 |
| 49.6 µM | O=S(=O)(Nc1ccc(Oc2ncnc3cc(Cl)ccc23)nc1)c1ccc(S(=O)(=O)c2ccccc2)s1 |
| > 50 µM (inactive) | O=C(CSc1nnc2c3ccccc3nc(-c3ccco3)n12)N1CCCc2ccccc21 |
| > 50 µM (inactive) | Cc1cc(=O)n(CC(=O)Nc2ccccc2C)c(Nc2ccc(F)cc2)n1 |

| IC50 | Structure (SMILES) |
| --- | --- |
| > 50 µM (inactive) | Cc1ccc(Cn2c(=O)c3ncccc3n(CC(=O)NCc3ccc(F)cc3)c2=O)cc1 |
| > 50 µM (inactive) | Nc1c(-c2nc(-c3ccccc3Cl)no2)nnn1-c1ccc(Cl)cc1 |
| 23.7 µM | COc1ccc(C2/C(=C(\O)c3ccccc3)C(=O)C(=O)N2c2nc3ccc(F)cc3s2)cc1 (stereo not drawn) |
| > 50 µM (inactive) | COc1ccc(-c2c(NC(=O)C3COc4ccccc4O3)n[nH]c2C)cc1OC (stereo not drawn) |
| > 50 µM (inactive) | O=C(COC(=O)c1ccc(NS(=O)(=O)c2ccc(F)c(F)c2)cc1)Nc1ccc(OCc2ccccc2)cc1 |
| > 50 µM (inactive) | CCc1nc(SCC(=O)Nc2cc(Cl)ccc2C)c2oc3ccccc3c2n1 |
| > 50 µM (inactive) | CCOC(=O)c1ccc(NC(=O)Cn2c(=O)n(-c3ccc(CC(=O)NCc4ccco4)cc3)c(=O)c3ccccc32)cc1 |
| > 50 µM (inactive) | Oc1cccc2nc3c(O)cccc3nc12 |
| > 50 µM (inactive) | Cc1nc(SCC(=O)NC(C)c2ccccc2)c2oc3ccccc3c2n1 (stereo not drawn) |
| 9.02 µM | CC(C)=CCC(O)C1=CC(=O)c2c(O)ccc(O)c2C1=O (stereo not drawn) |
| > 50 µM (inactive) | O=C(CCn1c(=O)c2ccccc2n(Cc2ccc(F)cc2Cl)c1=O)NCc1ccco1 |
| > 50 µM (inactive) | O=C(CSc1ncnc2c1oc1ccccc12)NCCc1ccccc1 |
| 9.52 µM | CO/C=C/C(=O)c1cc2cnc3c(=N)cc(NC(C)=O)c([nH]1)c23 |
| > 50 µM (inactive) | O=C(COc1ccccc1)Nc1ccc(-c2nc3cnccc3o2)c(O)c1 |
| > 50 µM (inactive) | Cc1noc(-c2cc(=O)n(CC(=O)Nc3ccccc3Cl)c3ccccc23)n1 |
| > 50 µM (inactive) | O=C(NCCc1nc2ccccc2n1Cc1ccccc1F)c1ccc(Cl)cc1 |
| > 50 µM (inactive) | Cc1cccc(N2C(=O)/C(=C\c3cc(C#N)n(C)c3C)c3ccccc3C2=O)c1 |
| > 50 µM (inactive) | O=c1c(S(=O)(=O)c2cc(F)cc(F)c2)c[nH]c2cc(Cl)ccc12 |
| > 50 µM (inactive) | COc1ccc2cc(C(=O)N3CCC(C(C)C(=O)NCc4cccc(F)c4)CC3)[nH]c2c1 (stereo not drawn) |
| > 50 µM (inactive) | Nc1c(C(=O)NCc2ccc3c(c2)OCO3)nnn1Cc1ccc(Br)cc1F |
| > 50 µM (inactive) | Cc1ccc2c(c1)N(C)C(=O)c1cc(NC(=O)c3ccc(F)cc3)ccc1O2 |

| IC50 | Structure (SMILES) |
| --- | --- |
| > 50 µM (inactive) | O=C(COc1ccc(N2CC(C(=O)NCc3ccc4c(c3)OCO4)CC2=O)cc1)Nc1ccc(F)cc1 (stereo not drawn) |
| > 50 µM (inactive) | O=C(Cn1c(=O)c2ccccc2n(CC(=O)Nc2ccc(Br)cc2)c1=O)NCc1ccco1 |
| > 50 µM (inactive) | COc1ccc(S(=O)(=O)N2CCc3ccccc32)cc1C(=O)Nc1ccc2[nH]c(=O)[nH]c2c1 |
| > 50 µM (inactive) | COc1ccc(NC(=O)Cn2c(=O)n(CCCC(=O)NC3CCCC3)c(=O)c3cc(Cl)ccc32)c(OC)c1 |
| 34.1 µM | Cc1cccc(C(=O)Nc2cccc(SC(C(=O)Nc3ccc(Cl)c(C(=O)O)c3)c3ccccc3)c2)c1 (stereo not drawn) |
| 28.9 µM | COc1ccccc1-c1nc(-c2cn(-c3cccc(Cl)c3)nn2)no1 |
| > 50 µM (inactive) | CC(=O)[C@H]1c2c(c(O)c3c(O)cccc3c2-c2c3c(c(O)c4c(O)cccc24)C(=O)C[C@](C)(O)[C@H]3C(C)=O)C(=O)C[C@]1(C)O |
| > 50 µM (inactive) | COc1ccccc1CNC(=O)CCCCn1c(=O)c2ccccc2n(CC(=O)Nc2ccc(C)cc2C)c1=O |
| > 50 µM (inactive) | O=C(Cn1c(=O)n(-c2ccc(CC(=O)NC3CCCC3)cc2)c(=O)c2ccccc21)Nc1ccccc1[N+](=O)[O-] |
| > 50 µM (inactive) | Cc1ccc(NC(=O)Cn2c(=O)n(CC(=O)NCc3ccco3)c(=O)c3ccccc32)cc1C |
| > 50 µM (inactive) | COC(=O)C1=CC(OC)=C(Cl)C(=O)C12OC(=O)c1c(O)cc(C)cc1O2 (stereo not drawn) |
| > 50 µM (inactive) | CC(C)[C@H]1CC[C@@]2(CO2)[C@H]2C(=O)OCC(C(=O)O)=C[C@H]12 |
| > 50 µM (inactive) | O=c1[nH]c(C2CCN(S(=O)(=O)c3ccc(S(=O)(=O)NC4CC4)cc3)CC2)nc2c1nnn2Cc1c(Cl)cccc1Cl |
| 46.4 µM | Cn1nc(Cl)c(Cl)c1Oc1ccc(S(=O)(=O)Nc2ccc(Oc3ccc(C(F)(F)F)cn3)c(Cl)c2)cc1 |
| 5.22 µM | O=c1c(O)c(-c2ccc(O)c(O)c2)oc2cc(O)cc(O)c12 |
| > 50 µM (inactive) | Cn1c2ccccc2c2ncn(CCCN3CCOCC3)c(=O)c21 |
| > 50 µM (inactive) | O=C(Nc1nccs1)C1c2ccccc2C(=O)N(Cc2ccccc2)C12CCCC2 (stereo not drawn) |
| 36.4 µM | CC(=O)NS(=O)(=O)c1ccc(NC(=O)/C=C/c2cn(-c3ccccc3)nc2-c2ccccc2)cc1 |
| 25.6 µM | CC/C=C\C/C=C\C/C=C\CCCCCCCC(=O)O |
| > 50 µM (inactive) | Cc1ccc(NC(=O)Cn2cc(C(=O)c3ccccc3)c(=O)c3cc(C)ccc32)cc1 |

| Structure (SMILES) | IC50 |
| --- | --- |
| C=C/C(=C/C(=O)C[C@H](C)C[C@@H](C)CC[C@H](O)[C@H](C)C(=O)CC(O)[C@H](C)[C@@H](C)OC(=O)C[C@@H](O)C1=C(C)C(=O)OC1=O)CC (stereo partly drawn) | 43.1 µM |
